# From patent US9857359B2, “Methods for determining drug efficacy using cereblon-associated proteins” (CELGENE CORPORATION, priority 2012, dated 2018)
# Experiments:
# Aiolos [1] = assay: Aiolos expression in viably frozen PBMCs prepared from treated whole blood, FACS; assay type: cell-based, human
# Protocol: Pre-weighed test compound was dissolved in 100% DMSO to make 100 mM or 10 mM stock concentrations. The compound in 100% DMSO was diluted to 10 mM, 1 mM, or 0.1 stock concentrations as appropriate. Compounds were directly added to heparinized human whole blood (1:1000 dilution) for final concentrations of 10 μM, 1 μM, or […] as appropriate. Seven (7) ml of whole blood was transferred to a 50 mL conical tube and treated with test compound. The blood was incubated for 1.5 or 5 hours at 37° C., 5% CO2. After each time point, 3.5 ml blood was transferred to BD Vacutainer CPT cell preparation tube, and the tube was […] inverted 10 times and centrifuged at RT, 1800 RCF for 20 minutes. Mononuclear layer was collected and transferred to 15 ml conical tube (3×3.5 ml DMSO controls were added to three CPT tubes, and mononuclear layers were collected and combined for following steps). The tube was filled up with cold PBS and centrifuged at 4° C., 300 RCF for 15 minutes. Supernatant was discarded and cell pellet was resuspended in 2 ml freezing medium (10% DMSO+90% FBS). The cell suspension was transferred to cryovial and was placed in Mr. Frosty (Fisher, cat. 15-350-50) and left at −80° C. freezer O/N.
# The cells were thawed in 37° C. water bath and centrifuged, and the freezing medium was removed. The cell pellet was washed 1× with cold PBS. The cells were lyzed and fixed by adding 1× Lyse/Fix buffer and mixed thoroughly by inverting the tube several times. The cell lyse/fix and blood mixture was incubated in a 37° C. water bath for 10 minutes. Cells were pelleted by centrifugation at 500×g for 5 minutes and removed the supernatant by aspiration. Cells were suspended with 1 mL of cold PBS, and then pelleted by centrifugation at 500×g for 5 minutes, and the supernatant was aspirated off. Two hundred (200) μL of PBS was added to cells. Cells were transferred to polystyrene U-bottom 96-well plates (BD, Cat. No. 353910) for use with the FACSCanto HTS. Cells were washed with 200 μL of cold PBS and spun at 500×g for 5 minutes, and the plate was flicked and gently dapped on a paper towel to remove excess buffer. The cells were resuspended and permeabilized by adding 200 μL of cold BD Perm/Wash Buffer I and incubated on ice for 30 minutes. The cells were pelleted by centrifugation at 500×g for 5 minutes and the buffer removed. The cells were washed once with 200 μL BD perm/wash buffer and repelleted, and the buffer was removed.
# (§1) The cell pellet was resuspended in 40 μL of BD perm/wash buffer. Twenty (20) μL each of anti-CD3-PE, anti-CD20-APC, and anti-Aiolos Rabbit antibodies, or 20 μL of appropriate isotype controls, or 20 μL of 1:400 of normal Rabbit IgG (control for Aiolos) were added to the cells. The mixture was mixed thoroughly and incubated at room temperature for 45 minutes in the dark. The mixture was centrifuged and washed once with BD perm/wash buffer at 500×g for 5 minutes. The cell pellet was resuspended in 80 μL of BD perm/wash buffer, and 20 μL of secondary Goat Anti-Rabbit IgG AF488 antibody (at 1:400 dilution in Perm/Wash Buffer) was added, and the mixture was incubated at RT for 30 min in the dark. Secondary antibody was not added to the isotype controls. The mixture was washed once with 200 μL BD Stain Buffer and centrifuged at 500×g for 5 minutes, and the pelleted cells were resuspended in 200 μL of staining buffer. The cells were analyzed on the BD FACSCanto using the HTS platform. The cells were analyzed using the standard method. If the cells cannot be read right away, the plates were covered in foil to protect from light and stored at 4° C. for up to 2 days. Data analysis was carried out using FlowJo from Tree Star, Inc. to assess mean fluorescence intensity and percent inhibition of Aiolos in cell population.
# Aiolos [2] = assay: Aiolos expression in drug treated T cells (FIG. 48); assay type: cell-based, human; details: all of the respective cells tested (FIGS. 47, 48)
# Protocol: Primary T cells from up to 3 donors were isolated from human leukocytes (Blood Center of New Jersey, East Orange, N.J.) by centrifugation through FICOLL® following the ROSETETTESEP™ protocol (Stem Cell Technologies, Vancouver, Canada). Purified T cells were stimulated with anti-CD3 Antibody (Ebioscience, San Diego, Calif.), drug treated for six hours, harvested and Aiolos and Ikaros protein expression was determined by immunoblot analysis using antibodies against Aiolos (Santa Cruz, Dallas, Tex.) and Ikaros (Millipore, Billerica, Mass.) with our without blocking peptide.
# Aiolos [3] = assay: Aiolos expression in human whole blood by FACS assay; assay type: cell-based
# Protocol: Pre-weighed test compound was dissolved in 100% DMSO to make 100 mM or 10 mM stock concentrations. The compound in 100% DMSO was diluted to 10 mM, 1 mM, 0.1 mM, 0.01 mM, 0.001 mM stock concentrations as appropriate. Compounds were directly added to heparinized human whole blood (1:1000 dilution) for final concentrations of 10 μM, 1 μM, or 0.1 μM as appropriate. Ten (10) ml of whole blood was transferred to a 50 mL conical tube and treated with test compound. The final DMSO concentration was 0.1%. The blood was incubated for 1.5 or 5 hours at 37° C., 5% CO2. After each time point, the blood was lysed/fixed, permeabilized, washed and stained with Aiolos as described below.
# BD Lyse/Fix Buffer was diluted 5× with distilled (or deionized) water. The Lyse/Fix buffer was pre-warmed in a 37° C. water bath for 10 minutes before use. The cells were lyzed and fixed immediately by mixing 1 volume of whole blood with 20 volumes of 1× Lyse/Fix buffer (for the 1 mL of blood+compound, add 20 mL of 1× Lyse/Fix buffer) and mixed thoroughly by inverting the tube several times. The cell lyse/fix and blood mixture was incubated in a 37° C. water bath for 10 minutes. Cells were pelleted by centrifugation at 500×g for 5 minutes and removed the supernatant by aspiration. Cells were suspended with 5 mL of cold PBS, and then pelleted by centrifugation at 500×g for 5 minutes, and the supernatant was aspirated off. Two hundred (200) μL of PBS was added to cells. Cells were transferred to polystyrene U-bottom 96-well plates (BD, Cat. No. 353910) for use with the FACSCanto HTS. Cells were washed with 200 μL of cold PBS and spun at 500×g for 5 minutes, and the plate was flicked and gently dapped on a paper towel to remove excess buffer. The cells were resuspended and permeabilized by adding 200 μL of cold BD Perm/Wash Buffer I and incubated on ice for 30 minutes. The cells were pelleted by centrifugation at 500×g for 5 minutes and the buffer removed. The cells were washed once with 200 μL BD perm/wash buffer and repelleted, and the buffer was removed.
# as §1
Compound,Aiolos expression in T and B cell populations (Aiolos [1]; 1.5 hours after the treatment),Aiolos expression in lymphocytes (Aiolos [1]; 1.5 hours after the treatment),Aiolos expression in non-lymphocytes (Aiolos [1]; 1.5 hours after the treatment),Aiolos expression in lymphocyte cells (Aiolos [1]; 5 hours after the treatment),Aiolos expression in non-lymphocytes (Aiolos [1]; 5 hours after the treatment),Aiolos expression (Aiolos [2]),Aiolos expression in T and B cell populations (Aiolos [3]; 1.5 hours after the treatment),Aiolos expression in lymphocytes (Aiolos [3]; 1.5 hours after the treatment),Aiolos expression in non-lymphocytes (Aiolos [3]; 1.5 hours after the treatment),Aiolos expression in lymphocytes (Aiolos [3]; 5 hour after the treatment)
"Cc1nc2cccc(N)c2c(=O)n1C1CCC(=O)NC1=O (centres unmarked) [Compound A, 3-(5-amino-2-methyl-4-oxo-4H-quinazolin-3-yl)-piperidine-2,6-dione]",inhibitory effect was observed in both T and B cell populations,some inhibitory effects,no effect was observed,significant inhibitory effects,no such effects were observed,reduced the expression of Aiolos and Ikaros,inhibitory effect was observed in both T and B cell populations,significantly inhibited the expression of Aiolos,no significant effect was observed,the degree of inhibition was more significant than that observed at 1.5 hours
"O=C1CC[C@H](N2Cc3c(OCc4ccc(CN5CCOCC5)cc4)cccc3C2=O)C(=O)N1 [Compound B, 3-(4-((4-(morpholinomethyl)benzyl)oxy)-1-oxoisoindolin-2-yl)piperidine-2,6-dione]",inhibitory effect was observed in both T and B cell populations,some inhibitory effects,no effect was observed,significant inhibitory effects,no such effects were observed,reduced the expression of Aiolos and Ikaros,inhibitory effect was observed in both T and B cell populations,significantly inhibited the expression of Aiolos,no significant effect was observed,the degree of inhibition was more significant than that observed at 1.5 hours
